Reference: patent US12150775B2, “Treatment of a disease of the gastrointestinal tract with an immunosuppressant” (BIORA THERAPEUTICS, INC., priority 2016, dated 2024)

Test: Tissue, plasma and GI content pharmacokinetics of tacrolimus, oral vs intra-cecal ingestible device delivery
Type: in vivo, Yorkshire-Cross farm swine
Conditions: swine; intra-cecally vs orally administered, 12 hours post-dose (FIG. 76)
Procedure: No further randomization procedure was employed.
Animals in Group 1 received an ingestible device containing 0.8 mL of vehicle solution (80% alcohol, 20% HCO-60). Animals in Group 2 received orally […] liquid formulation of tacrolimus at 4 mg/0.8 mL per animal (Prograf. 5 mg/mL). Animals in Group 3 received intra-cecally an ingestible device containing tacrolimus at 1 mg in 0.8 mL per ingestible device. Animals in Group 4 received intra-cecally an ingestible device containing tacrolimus at 2 mg in 0.8 mL per ingestible device. Animals in Group 5 received intra-cecally an ingestible device containing tacrolimus at 4 mg in 0.8 mL per ingestible device. […]
Approximately 200˜400 mg of rectal content were collected, if available, with a fecal swab (Copan Diagnostics Nylon Flocked Dry Swabs, 502CS01). The fecal swab was pre-weighed and weighed after collection in the collection tube (Sterile Tube and Cap No Media, PFPM913S), and the sample weight was recorded. […]
For tissue necropsy, small intestine fluid and cecal fluid were collected separately from all the animals into two separate square plastic bottles, and stored at −20° C. The length and diameter of the cecum and the colon was measured from one animal in each group and recorded for reference. […] All samples were weighed, and the tissue sample weights were recorded. […]

mean concentration of tacrolimus in the cecum tissue: higher | mean concentration of tacrolimus in the proximate colon tissue: higher
SMILES: C=CC[C@@H]1/C=C(\C)C[C@H](C)C[C@H](OC)[C@H]2O[C@@](O)(C(=O)C(=O)N3CCCC[C@H]3C(=O)O[C@H](/C(C)=C/[C@@H]3CC[C@@H](O)[C@H](OC)C3)[C@H](C)[C@@H](O)CC1=O)[C@H](C)C[C@@H]2OC [tacrolimus, Tacrolimus]
